Results: ChEMBL document CHEMBL1201862, “PubChem BioAssay data set” (2004)
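Each compound was tested at five concentrations against cells in 96-well plates for 48 hours. The concentration for 50% growth inhibition is given as GI50.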 Activity calls are given as the source filed them. Rule as the data show it: active = GI50 up to about 1.1 µM and inactive = higher.

Key:
Assay in all cases: growth of human tumour cells (NCI), 48 h
[1] = tested on: XF498
[2] = tested on: HOP-18
[3] = tested on: KM-20L2
[4] = tested on: LXFL 529
[5] = tested on: MDA-N
[6] = tested on: Hs-578T
[7] = tested on: MDA-MB-435
[8] = tested on: RXF 631

| SMILES | GI50 [1] | GI50 [2] | GI50 [3] | GI50 [4] | GI50 [5] | GI50 [6] | GI50 [7] | GI50 [8] |
| --- | --- | --- | --- | --- | --- | --- | --- | --- |
| CCCCCCCCCCCCCCCCNCC(O)CN (stereo not given) | 7.29 µM (inactive) | 5.46 µM (inactive) | 2.65 µM (inactive) | – | – | – | – | – |
| OC1CCSc2ccccc21 (stereo not given) | > 100 µM (inactive) | > 100 µM (inactive) | > 100 µM (inactive) | > 100 µM (inactive) | – | – | – | – |
| Cc1cccc(C(O)c2ccccn2)c1O (stereo not given) | – | – | – | – | > 100 µM (inactive) | > 100 µM (inactive) | > 100 µM (inactive) | – |
| Cc1cc(O)c(C(C)C)cc1SC#N | – | – | – | – | – | 20.5 µM (inactive) | 13.7 µM (inactive) | – |
| COC(=O)C1C(O)C(C)C(O)OC1C(C)C(O)C(C)/C=C\C=C(/C)C(=O)Nc1c(C)c(OC(C)=O)c2c(c1O)C(=O)C(C)=C1OCOC(/C(C)=C/C(C)=O)=C12 (stereo not given) | 13.8 µM (inactive) | 15.2 µM (inactive) | 12.9 µM (inactive) | – | – | – | – | – |
| CN1C[C@H]2[C@@H](C1=O)[C@H](c1ccc([N+](=O)[O-])cc1)ON2C | – | – | – | – | > 100 µM (inactive) | > 100 µM (inactive) | > 100 µM (inactive) | – |
| C=CC1OC(CCCOC(=O)C(C)(C)C)O[C@@H]1CC (stereo not given in full) | – | – | – | – | > 100 µM (inactive) | > 100 µM (inactive) | > 100 µM (inactive) | – |
| CCN1c2ccccc2NC(=S)c2c(-c3ccccc3)n[nH]c21 | – | – | – | – | 16.4 µM (inactive) | 75.5 µM (inactive) | 18.4 µM (inactive) | – |
| Cc1ccc(C)c(NC(=O)C(=O)C(C(=O)c2ccc3ccccc3c2)C2OC(=O)c3ccccc32)c1 (stereo not given) | 14.5 µM (inactive) | – | 21.3 µM (inactive) | 7.59 µM (inactive) | – | – | – | 16.1 µM (inactive) |
| CC(=O)OC[C@H]1[C@@H]2C(CC[C@]13CO3)OC(=O)CC(C)[C@]2(C)CCc1ccoc1 (stereo not given in full) | – | – | – | – | > 100 µM (inactive) | > 100 µM (inactive) | > 100 µM (inactive) | – |
| O=S(=O)(O)c1ccc(/N=N\c2ccc(/N=N\c3ccc(/C=C/c4ccc(/N=[N+](/[O-])c5ccc(/C=C/c6ccc(/N=N/c7ccc(/N=N\c8ccc(S(=O)(=O)O)cc8)cc7)cc6S(=O)(=O)O)c(S(=O)(=O)O)c5)cc4S(=O)(=O)O)c(S(=O)(=O)O)c3)cc2)cc1 | > 100 µM (inactive) | > 100 µM (inactive) | > 100 µM (inactive) | – | – | – | – | – |
| Cc1ccc(C2=C(C#N)C(N)OC3=C2COc2ccccc23)cc1 (stereo not given) | – | – | – | – | 44.2 µM (inactive) | – | 51.9 µM (inactive) | – |
| OC(c1cccnc1Cl)c1nc2ccccc2c2ccnc(Cl)c12 (stereo not given) | – | – | – | – | 0.69 µM (active) | 2.72 µM (inactive) | 0.628 µM (active) | – |
| COc1cc(C2S/C(=C/c3ccccc3)C(=O)N2c2cccc(NC(C)=O)c2)cc(OC)c1OC (stereo not given) | – | – | – | – | 26.7 µM (inactive) | 15.3 µM (inactive) | 18.3 µM (inactive) | – |
| O=C(O)C1=C(CO)Oc2cc3c(cc2C1c1ccc2c(c1)OCO2)OCO3 (stereo not given) | > 100 µM (inactive) | > 100 µM (inactive) | > 100 µM (inactive) | – | – | – | – | > 100 µM (inactive) |
| O=C(Nc1ccc(Cl)cc1)C(=O)C(C(=O)c1ccccc1-c1ccccc1)C1OC(=O)c2ccccc21 (stereo not given) | 17.9 µM (inactive) | – | 23.7 µM (inactive) | 16 µM (inactive) | – | – | – | – |
| O=C(N/C=C1\C(=O)Oc2ccccc2C1=O)NC1CCCCC1 | 21.4 µM (inactive) | – | > 100 µM (inactive) | 63.1 µM (inactive) | – | – | – | – |
| O=C(NC(Cc1ccc(I)cc1)C(=O)O)c1ccc(Cl)cc1 (stereo not given) | > 80.9 µM (inactive) | > 100 µM (inactive) | > 100 µM (inactive) | – | – | – | – | – |
| C=C1C(=O)OC2/C=C(\C(=O)O)CC/C=C(\C)CC(OC(=O)/C=C(\C)CC)C12 (stereo not given) | 18.3 µM (inactive) | 21.7 µM (inactive) | 19.6 µM (inactive) | 16.9 µM (inactive) | – | – | – | – |
| COc1cc(O)c2c(c1)C(=O)c1cc3c(c(O)c1C2=O)C(OC1OC(C)C(O)C(O)C1OC)C(OC)C(C)(O)C3=O (stereo not given) | 3.95 µM (inactive) | 5.16 µM (inactive) | 1.1 µM (active) | – | – | – | – | – |
| CCOP(=O)(COCCn1nc(Br)c(=O)[nH]c1=O)OCC | – | – | – | – | > 100 µM (inactive) | > 100 µM (inactive) | > 100 µM (inactive) | – |
